This is an account of results in ChEMBL document CHEMBL6109074 (Bioorg Med Chem, 2025).

For assay [1], the target named is T1, Histone acetyltransferase p300/Hypoxia-inducible factor 1-alpha (Homo sapiens, UniProt Q09472+Q16665). The assay is described as follows: Inhibition of HIF-1alpha(unknown origin)/human p300 CH1 domain (323 to 423 residues) PPI extracted from Escherichia coli incubated for 1 hr by SpectraMax iD5 MultiMode microplate reader analysis. The class given is protein-complex assay.

A short description of assay [2]: Inhibition of HIF transcriptional activity in human HeLa cells harbouring HRE-luc preincubated for 1 hr under normoxic condition followed by 8 hrs incubation under hypoxic condition by luciferase reporter assay. In kind it is cell-based.
Assay [3] deals with HeLa. The assay is described as follows: Effect on HIF-1alpa protein expression in human HeLa cells at 1 to 100 uM incubated under hypoxia condition for 8 hrs by Western blot analysis. The class given is functional, cell-based. Conditions: dose 1-100 µM. (In western blotting, separated proteins are transferred to a membrane and probed.)
Assay [4] concerns the target Histone acetyltransferase p300 (Homo sapiens, UniProt Q09472). The assay is described as follows: Inhibition of p300 CH1 domain (unknown origin) by tryptophan fluorescence spectroscopy analysis.
For assay [5], the target named is T1, Histone acetyltransferase p300/Hypoxia-inducible factor 1-alpha. The assay is described as follows: Inhibition of HIF-1alpha/p300 PPI (unknown origin). The class given is protein-complex assay.
For assay [6], the system named is HeLa. The assay is described as follows: Effect on HIF-1alpa mRNA expression in human HeLa cells at 1 to 100 uM incubated under hypoxia condition for 8 hrs by real-time analysis. The class given is functional, cell-based. Conditions: dose 1-100 µM.
Assay [7] relates to HeLa. The assay is described as follows: Downregulation of BAX mRNA expression in human HeLa cells at 1 to 100 uM incubated under hypoxia condition for 8 hrs by RT-PCR analysis. In kind it is functional, cell-based. Conditions: dose 1-100 µM.
Assay [8] deals with HeLa. The assay is described as follows: Effect on p53 mRNA expression in human HeLa cells at 1 to 100 uM incubated under hypoxia condition for 8 hrs by RT-PCR analysis. In kind it is functional, cell-based. Conditions: dose 1-100 µM.
For assay [9], the system named is HeLa. The assay is described as follows: Downregulation of c-MYC mRNA expression in human HeLa cells at 1 to 100 uM incubated under hypoxia condition for 8 hrs by RT-PCR analysis. In kind it is functional, cell-based. Conditions: dose 1-100 µM.
Assay [10] relates to HeLa. The experiment in a line: Effect on STAT3 mRNA expression in human HeLa cells at 1 to 100 uM incubated under hypoxia condition for 8 hrs by RT-PCR analysis. Conditions: dose 1-100 µM. In kind it is functional, cell-based.
For assay [11], the system named is HeLa. The assay is described as follows: Downregulation of CAIX mRNA expression in human HeLa cells at 1 to 100 uM incubated under hypoxia condition for 8 hrs by real-time analysis. The class given is functional, cell-based. Conditions: dose 1-100 µM.

For orientation: IC50 means the midpoint of a concentration-inhibition curve. High values mean lower potency, low ones higher potency.

Structures can show the parent of a compound that is named as a salt. Activity calls are given as the source filed them. The calls are words filed in the database; no cut-off is given here.

T1 sequence (Q09472 whole entry, the tested form may be a part): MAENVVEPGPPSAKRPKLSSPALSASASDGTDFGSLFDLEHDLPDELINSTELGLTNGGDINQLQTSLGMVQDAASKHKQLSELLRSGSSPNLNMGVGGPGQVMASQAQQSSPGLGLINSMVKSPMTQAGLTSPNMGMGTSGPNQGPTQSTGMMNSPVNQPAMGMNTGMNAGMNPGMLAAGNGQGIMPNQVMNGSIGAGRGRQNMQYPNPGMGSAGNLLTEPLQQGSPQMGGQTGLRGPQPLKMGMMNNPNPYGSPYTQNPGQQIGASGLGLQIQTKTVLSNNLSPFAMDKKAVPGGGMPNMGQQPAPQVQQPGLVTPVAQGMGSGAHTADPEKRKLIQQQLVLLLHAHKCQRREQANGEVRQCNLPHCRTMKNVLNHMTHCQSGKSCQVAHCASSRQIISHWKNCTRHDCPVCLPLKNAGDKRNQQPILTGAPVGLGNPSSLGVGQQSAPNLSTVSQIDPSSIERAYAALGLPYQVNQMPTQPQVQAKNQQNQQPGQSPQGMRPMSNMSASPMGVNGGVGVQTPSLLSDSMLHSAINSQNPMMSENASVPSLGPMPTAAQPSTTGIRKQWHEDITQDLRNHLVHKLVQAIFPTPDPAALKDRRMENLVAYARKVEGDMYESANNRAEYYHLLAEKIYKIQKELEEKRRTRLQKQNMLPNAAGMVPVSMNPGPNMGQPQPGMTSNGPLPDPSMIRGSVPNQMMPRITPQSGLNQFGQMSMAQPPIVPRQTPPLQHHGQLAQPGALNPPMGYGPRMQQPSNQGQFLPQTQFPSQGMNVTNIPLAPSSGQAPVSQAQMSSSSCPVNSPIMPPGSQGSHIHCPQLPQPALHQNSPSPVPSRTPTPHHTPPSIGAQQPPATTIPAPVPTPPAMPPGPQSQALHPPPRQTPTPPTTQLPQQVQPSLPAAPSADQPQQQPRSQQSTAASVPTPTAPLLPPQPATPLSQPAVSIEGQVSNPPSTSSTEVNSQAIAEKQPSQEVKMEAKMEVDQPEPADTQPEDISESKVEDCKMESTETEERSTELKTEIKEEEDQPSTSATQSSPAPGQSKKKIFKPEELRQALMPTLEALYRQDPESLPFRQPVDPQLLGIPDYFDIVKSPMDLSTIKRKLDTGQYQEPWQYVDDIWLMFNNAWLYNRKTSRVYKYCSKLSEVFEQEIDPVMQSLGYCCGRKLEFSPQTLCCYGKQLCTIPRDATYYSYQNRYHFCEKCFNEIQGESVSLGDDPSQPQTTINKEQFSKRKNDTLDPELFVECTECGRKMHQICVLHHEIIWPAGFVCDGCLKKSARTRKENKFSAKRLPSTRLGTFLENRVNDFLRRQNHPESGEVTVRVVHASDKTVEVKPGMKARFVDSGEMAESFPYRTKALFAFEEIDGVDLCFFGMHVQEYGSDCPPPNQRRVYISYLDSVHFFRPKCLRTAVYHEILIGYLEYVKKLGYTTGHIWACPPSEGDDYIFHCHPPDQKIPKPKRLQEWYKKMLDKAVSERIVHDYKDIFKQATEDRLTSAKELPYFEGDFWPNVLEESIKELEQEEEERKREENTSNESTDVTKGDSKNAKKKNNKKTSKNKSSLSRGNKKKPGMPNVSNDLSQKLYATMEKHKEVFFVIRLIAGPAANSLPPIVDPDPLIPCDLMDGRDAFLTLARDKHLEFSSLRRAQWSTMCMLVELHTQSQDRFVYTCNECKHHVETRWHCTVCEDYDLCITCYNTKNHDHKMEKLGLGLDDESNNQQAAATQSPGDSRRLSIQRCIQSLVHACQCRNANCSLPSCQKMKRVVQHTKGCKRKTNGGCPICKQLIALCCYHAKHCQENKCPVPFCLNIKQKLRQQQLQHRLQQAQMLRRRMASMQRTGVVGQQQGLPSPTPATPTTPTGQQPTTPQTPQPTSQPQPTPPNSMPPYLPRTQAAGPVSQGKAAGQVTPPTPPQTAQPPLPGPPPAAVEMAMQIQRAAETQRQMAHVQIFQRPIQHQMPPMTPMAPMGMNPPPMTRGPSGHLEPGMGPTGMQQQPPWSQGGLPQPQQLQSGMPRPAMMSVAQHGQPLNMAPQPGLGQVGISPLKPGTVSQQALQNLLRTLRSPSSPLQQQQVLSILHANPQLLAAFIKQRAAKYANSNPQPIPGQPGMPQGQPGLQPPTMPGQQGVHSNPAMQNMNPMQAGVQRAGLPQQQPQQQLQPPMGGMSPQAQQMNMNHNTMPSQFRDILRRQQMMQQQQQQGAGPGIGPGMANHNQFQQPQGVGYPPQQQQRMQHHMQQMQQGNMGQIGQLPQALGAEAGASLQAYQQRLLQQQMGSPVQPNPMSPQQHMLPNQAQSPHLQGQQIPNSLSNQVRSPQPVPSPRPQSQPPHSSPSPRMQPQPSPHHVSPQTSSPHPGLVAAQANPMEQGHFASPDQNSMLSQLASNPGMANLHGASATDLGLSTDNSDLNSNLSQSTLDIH
T1 sequence (Q16665 whole entry, the tested form may be a part): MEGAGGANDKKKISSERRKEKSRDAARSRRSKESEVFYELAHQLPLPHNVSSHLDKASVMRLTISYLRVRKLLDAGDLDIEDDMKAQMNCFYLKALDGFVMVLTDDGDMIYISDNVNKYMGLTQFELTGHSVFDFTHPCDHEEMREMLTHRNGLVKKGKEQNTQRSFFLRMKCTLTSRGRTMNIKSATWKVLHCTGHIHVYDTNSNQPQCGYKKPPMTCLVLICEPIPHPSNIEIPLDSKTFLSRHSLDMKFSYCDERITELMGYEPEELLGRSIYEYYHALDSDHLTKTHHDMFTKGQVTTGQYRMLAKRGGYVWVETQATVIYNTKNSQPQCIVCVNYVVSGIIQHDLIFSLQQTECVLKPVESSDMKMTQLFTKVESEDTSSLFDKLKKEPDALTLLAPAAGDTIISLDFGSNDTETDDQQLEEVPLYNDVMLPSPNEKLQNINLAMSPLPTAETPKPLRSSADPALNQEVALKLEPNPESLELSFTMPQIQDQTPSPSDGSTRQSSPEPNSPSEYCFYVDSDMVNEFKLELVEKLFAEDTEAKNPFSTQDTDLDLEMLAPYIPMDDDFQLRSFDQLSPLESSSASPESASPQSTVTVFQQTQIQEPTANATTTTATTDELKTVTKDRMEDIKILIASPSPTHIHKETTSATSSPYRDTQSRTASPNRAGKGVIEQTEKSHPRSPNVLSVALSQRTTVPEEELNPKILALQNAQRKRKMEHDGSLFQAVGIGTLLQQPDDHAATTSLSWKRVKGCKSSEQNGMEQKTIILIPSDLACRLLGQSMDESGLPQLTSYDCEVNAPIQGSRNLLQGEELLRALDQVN
Sequence of Histone acetyltransferase p300 (Q09472 whole entry, the tested form may be a part): as the sequence (Q09472 whole entry, the tested form may be a part) above

In [1], `COC1=C(N)C(=O)c2nc(-c3nc(C(=O)O)c(C)c(-c4ccc(OC)c(OC)c4O)c3N)ccc2C1=O` [STREPTONIGRIN] displayed a 50% inhibitory concentration (IC50) of 1.38 µM.

`Fc1ccc(C(c2ccc(F)cc2)N2CCN(C/C=C/c3ccccc3)CC2)cc1` [FLUNARIZINE HYDROCHLORIDE]: in assay [2], 9.01 µM corresponded to half-maximal inhibition (IC50).

Regarding `C[C@@]12C(=O)OC(=O)[C@]1(C)[C@H]1CC[C@@H]2O1` [CANTHARIDIN], in assay [2], the 50% inhibitory concentration (IC50) was found to be 5.63 µM. Against the preceding molecule, the IC50 is about 1.6-fold lower.

`OCCN1CCN(CCCN2c3ccccc3Sc3ccc(Cl)cc32)CC1` [PERPHENAZINE] yielded a 50% inhibitory concentration (IC50) in assay [2] of 14.3 µM. Further, the result in the assay with HeLa [3] was inactive.

Turning to `CC(C)C[C@@H]1NCCN([C@@H](CC(C)C)C(=O)N2CCN([C@@H](CCC(N)=O)C(N)=O)C(=O)[C@@H]2C)C1=O`, the IC50 was 0.53 µM in assay [4] and 0.0513 µM in [1].

In the case of `COC(=O)c1ccc(O)c(NC(=O)COc2ccc(C34CC5CC(CC(C5)C3)C4)cc2)c1`, in [5], the midpoint of inhibition, the IC50, lay at 4.4 µM.

Consider `[N-]=[N+]=Nc1cc(O)c(C(=O)Nc2ccc([N+](=O)[O-])cc2Cl)cc1Cl`, for which the result in the assay on HeLa [3] was inactive.

As for `O=C(Nc1ccc([N+](=O)[O-])cc1Cl)c1cc(Cl)ccc1O`, the outcome in the assay with HeLa [6], with HeLa [8], in the assay with HeLa [3] and with HeLa [10] was inactive. The outcome with HeLa [7], in the assay with HeLa [9] and in the assay with HeLa [11] was Active.
